Experimental data taken from the supplement of paper PMC10307832.

How the values were obtained:
Experiment in all cases: relative viability (nuclei count vs DMSO), 5 days (fraction); higher = more cells survive
Trametinib + Navitoclax = compound: CC(=O)Nc1cccc(-n2c(=O)n(C3CC3)c(=O)c3c(Nc4ccc(I)cc4F)n(C)c(=O)c(C)c32)c1 [Trametinib] + CC1(C)CCC(c2ccc(Cl)cc2)=C(CN2CCN(c3ccc(C(=O)NS(=O)(=O)c4ccc(N[C@H](CCN5CCOCC5)CSc5ccccc5)c(S(=O)(=O)C(F)(F)F)c4)cc3)CC2)C1 [Navitoclax] (partner 0.5 µM)
How it was run: (§1)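 Cells from lung cancer lines were seeded into 1536-well plates and, one day later, dosed by pin tool. Treatments were either a single drug or a fixed dose of an anchor drug with five library-drug doses (not always all listed) in √10 steps. After 5 days, nuclei were stained in a one-step fixation (final 0.05% Triton X-100, 1% formaldehyde, 1 ug/ml Hoechst) and counted on 4× images, and relative viability is the treated-to-vehicle nuclei ratio, as the median of duplicate plates.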

Trametinib + Luminespib = compound: CC(=O)Nc1cccc(-n2c(=O)n(C3CC3)c(=O)c3c(Nc4ccc(I)cc4F)n(C)c(=O)c(C)c32)c1 [Trametinib] + CCNC(=O)c1noc(-c2cc(C(C)C)c(O)cc2O)c1-c1ccc(CN2CCOCC2)cc1 [Luminespib] (partner 0.01 µM)
How it was run: as §1

Trametinib + Decitabine = compound: CC(=O)Nc1cccc(-n2c(=O)n(C3CC3)c(=O)c3c(Nc4ccc(I)cc4F)n(C)c(=O)c(C)c32)c1 [Trametinib] + Nc1ncn([C@H]2C[C@H](O)[C@@H](CO)O2)c(=O)n1 [Decitabine] (partner 2 µM)
How it was run: as §1

[1] = compound: CN1C=C(C2=CC=CC=C21)/C=C\3/C4=C(C=CC=N4)NC3=O + Cc1cc(Nc2cc(N3CCN(C)CC3)nc(Sc3ccc(NC(=O)C4CC4)cc3)n2)n[nH]1 [Tozasertib] (partner 0.1 µM)
How it was run: as §1

| Cell Line | relative viability (Trametinib + Navitoclax; first compound 0.0025 µM) | relative viability (Trametinib + Navitoclax; first compound 0.007906 µM) | relative viability (Trametinib + Navitoclax; first compound 0.025 µM) | relative viability (Trametinib + Navitoclax; first compound 0.07906 µM) | relative viability (Trametinib + Navitoclax; first compound 0.25 µM) | relative viability (Trametinib + Luminespib; first compound 0.0025 µM) | relative viability (Trametinib + Luminespib; first compound 0.007906 µM) | relative viability (Trametinib + Luminespib; first compound 0.025 µM) | relative viability (Trametinib + Luminespib; first compound 0.07906 µM) | relative viability (Trametinib + Luminespib; first compound 0.25 µM) | relative viability (Trametinib + Decitabine; first compound 0.0025 µM) | relative viability (Trametinib + Decitabine; first compound 0.007906 µM) | relative viability (Trametinib + Decitabine; first compound 0.025 µM) | relative viability (Trametinib + Decitabine; first compound 0.07906 µM) | relative viability (Trametinib + Decitabine; first compound 0.25 µM) | relative viability ([1]; first compound 0.02 µM) | relative viability ([1]; first compound 0.06325 µM) | relative viability ([1]; first compound 0.6325 µM) | relative viability ([1]; first compound 2 µM) | relative viability ([1]; first compound 0.2 µM) |
| --- | --- | --- | --- | --- | --- | --- | --- | --- | --- | --- | --- | --- | --- | --- | --- | --- | --- | --- | --- | --- |
| NCI-H1944 | 0.916 | 0.71 | 0.544 | 0.664 | 0.49 | 0.624 | 0.489 | 0.429 | 0.377 | 0.22 | 0.446 | 0.379 | 0.403 | 0.386 | 0.294 | 0.234 | 0.246 | 0.234 | 0.21 | – |
| NCI-H1975 | 0.999 | 1 | 0.713 | 0.466 | 0.395 | 0.207 | 0.177 | 0.155 | 0.183 | 0.171 | 0.332 | 0.336 | 0.345 | 0.261 | 0.278 | 0.688 | 0.753 | 0.42 | 0.245 | 0.641 |
| NCI-H1993 | 0.794 | 0.748 | 0.65 | 0.764 | 0.774 | 0.74 | 0.693 | 0.749 | 0.528 | 0.578 | 0.556 | 0.567 | 0.582 | 0.57 | 0.524 | 0.565 | 0.565 | 0.652 | 0.559 | 0.552 |
| NCI-H2009 | 0.986 | 0.527 | 0.537 | 0.531 | 0.403 | 1.03 | 0.623 | 0.406 | 0.26 | 0.315 | 0.306 | 0.303 | 0.247 | 0.273 | 0.267 | 0.73 | 0.613 | 0.859 | 0.831 | 0.741 |
| NCI-H2023 | 0.864 | 0.825 | 0.877 | 0.549 | 0.33 | 0.582 | 0.403 | 0.51 | 0.575 | 0.197 | 0.211 | 0.187 | 0.237 | 0.207 | 0.154 | 0.282 | 0.267 | 0.249 | 0.237 | 0.352 |
| NCI-H2085 | 1.07 | 0.9 | 0.924 | 0.878 | 0.81 | 0.415 | 0.325 | 0.263 | 0.288 | 0.329 | 0.544 | 0.558 | 0.552 | 0.629 | 0.61 | 0.803 | 0.734 | 0.622 | 0.575 | 0.797 |
